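Five concentrations, 48 hours, 96-well plates. At the GI50, growth is halved. Definition used: TGI = concentration required for complete inhibition of growth.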
Assays:
Assay in all cases: inhibition of tumour cell growth, NCI panel, 48 h
CAKI-1 renal = system: CAKI-1 renal
MOLT-4 leukemia = system: MOLT-4 leukemia
OVCAR-5 ovarian = system: OVCAR-5 ovarian
SR leukemia = system: SR leukemia
TK-10 renal = system: TK-10 renal
OVCAR-4 ovarian = system: OVCAR-4 ovarian
KM12 colon = system: KM12 colon
UO-31 renal = system: UO-31 renal
PC-3 prostate = system: PC-3 prostate
HL-60(TB) leukemia = system: HL-60(TB) leukemia

SMILES | GI50 (CAKI-1 renal) [µM] | TGI (CAKI-1 renal) [µM] | GI50 (MOLT-4 leukemia) [µM] | TGI (MOLT-4 leukemia) [µM] | GI50 (OVCAR-5 ovarian) [µM] | TGI (OVCAR-5 ovarian) [µM] | GI50 (SR leukemia) [µM] | TGI (SR leukemia) [µM] | GI50 (TK-10 renal) [µM] | TGI (TK-10 renal) [µM] | GI50 (OVCAR-4 ovarian) [µM] | TGI (OVCAR-4 ovarian) [µM] | GI50 (KM12 colon) [µM] | TGI (KM12 colon) [µM] | GI50 (UO-31 renal) [µM] | TGI (UO-31 renal) [µM] | GI50 (PC-3 prostate) [µM] | TGI (PC-3 prostate) [µM] | GI50 (HL-60(TB) leukemia) [µM] | TGI (HL-60(TB) leukemia) [µM]
CCN1C(=O)CCCc2c1ccc(Nc1ncc(Cl)c(NC3[C@@H](C(N)=O)[C@@H]4C=C[C@H]3C4)n1)c2OC (stereo partly drawn) | 0.919 | 4.48 | 1.41 | 11.3 | 1.34 | > 22.2 | 0.0556 | 19.7 | 0.897 | 4.38 | 1.94 | > 41.3 | 1.87 | 13.9 | 0.809 | 4.07 | 1.49 | 18 | 0.667 | 5.46
N[C@@H]1C(=O)N2C(C(=O)OC(c3ccccc3)c3ccccc3)=C(CCl)CS[C@H]12 | > 100 | > 100 | 11.3 | > 71.2 | 44.5 | > 100 | 2.12 | 33.8 | 50.1 | > 100 | 44.8 | > 100 | 38.1 | > 100 | 47.3 | > 100 | 32.4 | > 100 | 2.46 | > 38.3
COc1cc(-c2cc(-c3ccc(Nc4ccnc5cc(Cl)ccc45)cc3)nc(N3CCOCC3)n2)cc(OC)c1OC |  |  | 2.58 | 9.2 | 2.19 | 4.72 | 0.468 | 2.41 | 1.82 | 3.3 | 1.89 | 4.3 |  |  | 1.57 | 3.11 | 1.78 | 3.69 | 5.99 | 82.1
Brc1ccc2[nH]cc(-c3nc(-c4c[nH]c5ncccc45)cs3)c2c1 | 1.67 | 10.5 | 2.97 | 35.6 | 4.49 | 17.6 | 3.25 | 14.3 | 5.28 | 17.8 | 3.31 | 20.8 | 2.92 | 10.4 | 1.16 | 13.1 | 2.99 | 13.5 | 4.29 | > 100
COC1=C(C)C(=O)c2c(c(CCCl)c3n2CCC3O)C1=O (stereo not drawn) | 1.22 | 3.95 | 7.37 | 99.4 | 0.411 | 7.72 | 0.409 | > 26.8 | 0.296 | 0.763 | 9.36 | 39 | 1.37 | 6.73 | 0.545 | 2.42 | 1.42 | 10.8 | 3.34 | 30.4
Oc1ccc(-c2nc3ccc4[nH]ncc4c3c3c2CCCC3)c(F)c1 | 2.69 | 9.73 | 1.91 | 8.88 | 4.41 | 17.6 | 0.464 | 7.46 | 2 | 9.53 | 3.38 | 16.1 | 0.362 | 13.2 | 2.6 | 8.35 | 2.75 | 14.8 | 2.93 | 8.82
COC(=O)C1OC2(CCCC3CC32)O[C@H]1C(=O)OC (stereo partly drawn) |  | > 100 |  | > 100 |  | > 100 |  | > 100 |  | > 100 |  | > 100 |  | > 100 |  | > 100 |  | > 100 |  | > 100
COc1cccc(-c2nn(-c3ccccc3)cc2-c2ccnc(NCCNC(=O)Nc3cccc(C(F)(F)F)c3)c2)c1 | 1.95 | 5.62 | 2.02 | 4.81 | 1.51 | 3.63 | 1.91 | 4.97 | 2.74 | 11.9 | 2.36 | 8.13 | 2.08 | 4.54 | 1.6 | 4.15 | 2.02 | 5.24 | 1.54 | 4.23
CN(COC(=O)c1ccccc1)c1nc(N(C)COC(=O)c2ccccc2)nc(N(C)COC(=O)c2ccccc2)n1 |  | > 86.2 |  | > 100 |  | > 100 |  | > 100 |  | 59.2 |  | > 100 |  | > 100 |  | > 100 |  | > 100 |  | > 100
COc1ccc(/C=c2\sc3n(c2=O)C2C(NN=3)N(C)C(=O)N2C)cc1 (stereo not drawn) | 0.563 | > 100 | 1.24 | > 100 | 2.25 | > 100 | 0.316 | > 100 | > 100 | > 100 | > 100 | > 100 | 0.588 | > 100 | 1.86 | > 100 | 0.444 | > 100 | 0.501 | 1.96
N#Cc1c(Br)n(C2OC(CO)C(O)C2O)c2ncnc(N)c12 (stereo not drawn) | 0.677 | 2.91 | 0.723 | 7.02 | 4.17 | > 100 | 0.827 | 4.98 | 4.02 | 42 | 2.11 | 71.8 | 1.71 | > 40.1 | 2.25 | 59.5 | 0.811 | 18.6 | 0.608 | 2.59
CCCCCCNC(=O)Oc1ccc(/C(=C(/C)Cc2ccc(OC)cc2)c2ccc(OCCCN(C)C)cc2)cc1 | 14.5 | 27.8 | 12.3 | 28.2 | 15.7 | 29.8 | 2.79 | 11.9 | 17.2 | 31.6 | 13.1 | 26.7 | 13.9 | 27.7 | 10.9 | 23.2 | 14.6 | 28.2 | 10.5 | 24.9
CCC(c1ccc(OC)cc1)C(CC)c1ccc(O)c(CN2CCN(C)CC2)c1 (stereo not drawn) | 2.61 | 10.6 | 6.01 | 20.4 | 14.7 | 29.3 | 1.71 | 5.44 | 4.48 | 15.6 | 7.22 | 22.4 | 3.68 | 12 | 1.83 | 7.32 | 6.73 | 21.2 | 2.62 | 5.9
O=C(CN1CCN(c2cc3c(cc2F)c(=O)c(C(=O)O)cn3C2CC2)CC1)Nc1nc(-c2ccc(Cl)cc2)cs1 | 3.57 | > 100 | 3.31 | > 100 | 8.66 | > 100 | 3.58 | 53.1 | 4.28 | > 100 | 6.64 | 98.8 | 3.69 | > 100 | 2.96 | > 100 | 3.36 | 29.9 | 2.71 | 6.29
Cc1cn(C2C=CC(CO)O2)c(=O)[nH]c1=O (stereo not drawn) |  | > 1000 |  | > 1000 |  | > 1000 |  | > 1000 |  | > 1000 |  | > 1000 |  | > 1000 |  | > 1000 |  | > 1000 |  | > 1000
Clc1ccc(-c2csc(Nc3cccc(-c4csc(-c5ccccc5)n4)c3)n2)cc1 | 9.77 | 25.6 | 19.5 | > 50 |  |  | 6.8 | 28.7 | 19.8 | > 50 |  |  | 15.7 | > 50 | 12.4 | 27.4 | 5.71 | 17 | 17.2 | 40.9
O=[N+]([O-])c1ccc(Oc2nc(Nc3ccc(O[C@H]4CO[C@H]5[C@@H]4OC[C@@H]5O)c(Cl)c3)ncc2F)c(Cl)c1 | 2.28 | 8.11 | 1.27 | 4.82 | 2.33 | 16.8 | 0.548 | 7.79 | 1.08 | 4.07 | 1.19 | 5.73 | 0.41 | 2.22 | 1.6 | 4.81 | 1.66 | 7.04 | 1.53 | 4.11
O=C(O)C1CCCCC1c1c2ccc(=O)c(O)c-2oc2c(O)c(O)ccc12 (stereo not drawn) |  | > 100 |  | 84.4 |  | > 100 |  | > 100 |  | > 100 |  | 64 |  | > 100 |  | > 100 |  | > 100 |  | 65.2
FC(F)(F)c1ccc(-c2cnc(-n3cc(COCCN4CCCCC4)nn3)nc2NC2CCCCCC2)cc1 | 3.51 | 7.33 | 3.73 | 9.26 | 4.72 | 8.79 | 2.61 | 7.73 | 4.14 | 7.81 | 3.11 | 6.35 | 4.27 | 8.08 | 2.63 | 5.97 | 2.93 | 6.18 | 3.84 | 8.26
COc1ccc(S(=O)(=O)NC2=NCCN2C(=S)SN2CCn3c2nsc3=S)cc1 | 17.9 | 62.8 | 29.4 | > 100 | 17.3 | 33.3 | 17 | > 100 | 15.9 | 30.2 | 18 | 44.7 | 18.7 | 37.7 | 1.61 | 3.41 | 17.5 | 40.1 |  | 
O=[N+]([O-])c1ccc(C2CC(c3ccccc3Cl)=Nc3ccccc3S2=O)cc1 (stereo not drawn) |  | 4.33 |  | 7.47 |  | 18.6 |  | 6.64 |  | 19.9 |  | 6.12 |  | 9.97 |  | 4.74 |  | 17.3 |  | 3.63
Cc1ccc(C(NC(=O)c2ccccc2)c2ccc3cccnc3c2O)cc1 (stereo not drawn) | 0.328 | > 50.7 | 0.332 | > 70.2 | 0.611 | > 70.4 | 0.197 | > 63.5 | 0.413 | 24.1 | 0.275 | > 52 | 0.38 | > 43.7 | 0.198 | 1.19 | 0.354 | 26.3 | 0.288 | 1
COc1cc2c(cc1OC)C(Sc1ccc(SC)cc1)c1c(nc(N)c(C#N)c1N)O2 (stereo not drawn) |  |  | 1.07 | 4.08 | 1.87 | 3.5 | 0.354 | 2.35 | 1.6 | 2.95 | 1.64 | 3.27 | 1.81 | 3.46 | 1.33 | 2.6 | 1.63 | 3.06 | 1.51 | 3.59
Oc1ccc(O)c(-c2cc(-c3ccc(Cl)cc3)nn2-c2ccccc2)c1 | 18.8 | 39.6 | 3.3 | > 100 | 3.11 | 10.7 | 3 | 14.4 | 6.58 | 25.6 |  |  | 4.14 | 18.4 | 12.2 | > 100 | 3.19 | 13.1 | 5.71 | 64.8
Clc1ccc(-c2nnc(-c3cccc4ccccc34)o2)cc1Cl |  | > 100 |  | > 100 |  | > 100 |  | > 100 |  | > 100 |  | > 100 |  | > 100 |  | > 100 |  | > 100 |  | > 100
Nc1cc(O)ccc1N=Nc1ccc(-c2nc3ccccc3[nH]2)cc1 | 3.51 | 82.3 | > 100 | > 100 | > 100 | > 100 | 68.5 | > 100 | 16.1 | > 100 | > 100 | > 100 | 5.07 | > 100 | 30.5 | > 100 | 20.4 | > 100 | 44.6 | > 100
COc1cccc(-c2ccc3c(c2)C2CCN(Cc4ccccc4)C3C2)c1 (stereo not drawn) | 10.8 | 40.1 | 7.17 | 40.5 | 11.8 | 29 | 3.95 | 13.8 |  |  | 5.71 | 58.2 | 5.14 | 21.6 | 6.79 | 21.6 | 6.99 | 65.4 | 5.71 | 21
O=C(O)C1CC2(C1)CC(C(=O)O)C2 (stereo not drawn) |  | > 100 |  | > 100 |  | > 100 |  | > 100 |  | > 100 |  | > 100 |  | > 100 |  | > 100 |  | > 100 |  | 
